Consider six compounds from ChEMBL document CHEMBL1201862, “PubChem BioAssay data set” (2004).

The source made the active and inactive calls.

In one assay the target is Nonstructural protein 1 (Influenza A virus, UniProt Q194T2). It is filed as functional, Influenza A virus (A/California/07/2009(H1N1)).
Assay [1] can be described thus: inhibitors of SNCA 5'UTR-driven reporter translation, confirmation, H4 neuroglioma cells, luminescence (AID 1988). It is filed as functional, cell-based.
Assay [2] can be described thus: luciferase reporter signal reduction – luminescence, H4-C neuroglioblastoma cells, dose response (AID 2458).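 Further: H4 neuroglioblastoma cells stably carrying a luciferase reporter gene fusion.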 It is filed as functional, cell-based.
Assay [3] in a line: NIH-3T3 fibroblast cytotoxicity, dose response, cytotoxicity control, cell-based, fluorescence, Alamar Blue, secondary assay (AID 2327).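 Further: NIH-3T3 mouse fibroblasts cultured with fluconazole at 8 µg/mL.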 It is filed as functional. (Alamar Blue is a resazurin reagent that responds to reducing activity.)
Assay [4] is described as follows: inhibitors of firefly luciferase expression or activity, dose response, H4 neuroglioma cells, luminescence (AID 1990). It is filed as functional, cell-based.
Assay [5] can be described thus: Luminescence Cell-Based Dose Response HTS to Identify Inhibitors of 5'UTR Stem-Loop Driven Prion Protein mRNA Translation in H4 Neuroglioblastoma Cells. [Related pubchem assays: 1827 (Project Summary), 1813 (Primary HTS)]. It is filed as functional.
Assay [6] in a line: inhibitors of SNCA 5'UTR-driven translation, confirmation, luminescence, H4 neuroglioblastoma cells, dose confirmation (AID 2454).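 Further: H4 neuroglioblastoma cells carrying an alpha-synuclein 5'UTR luciferase reporter; potency for inhibition of the luciferase signal.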 It is filed as functional, cell-based.
Another assay in a line: cells. It is filed as functional, cell-based.
The test system of a further assay is BJ. Description: cytotoxicity toward Ras-transformed BJeLR fibroblasts, dose response, cell-based, alamar blue fluorescence, cherrypicked samples (AID 2631).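 Further: confirmatory dose-response assay in RAS-dependent BJ fibroblasts engineered with TERT, LT and ST, with cytotoxicity read by fluorescence.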 It is filed as functional. Particulars: Homo sapiens.
Another assay concerns the target T1, Streptokinase A (Streptococcus pyogenes serotype M1, UniProt P10520).
T1 sequence (P10520 whole entry): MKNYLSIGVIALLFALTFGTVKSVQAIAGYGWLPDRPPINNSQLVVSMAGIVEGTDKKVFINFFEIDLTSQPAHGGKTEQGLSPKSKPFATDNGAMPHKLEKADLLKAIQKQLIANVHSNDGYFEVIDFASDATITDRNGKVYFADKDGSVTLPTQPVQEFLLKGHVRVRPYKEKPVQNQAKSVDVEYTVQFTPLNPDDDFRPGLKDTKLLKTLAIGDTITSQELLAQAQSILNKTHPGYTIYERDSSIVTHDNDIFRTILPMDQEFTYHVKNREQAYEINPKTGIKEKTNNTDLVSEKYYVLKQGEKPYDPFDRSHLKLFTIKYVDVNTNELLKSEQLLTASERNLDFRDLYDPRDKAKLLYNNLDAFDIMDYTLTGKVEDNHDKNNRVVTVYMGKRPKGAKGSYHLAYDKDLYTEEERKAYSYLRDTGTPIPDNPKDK
Description: S. pyogenes streptokinase expression inhibitors, potency, dose response, plasminogen activation absorbance, OD405 (AID 1914).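 Further: secreted streptokinase activity via plasminogen activation per viability signal from cell pellet.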 It is filed as functional, Streptococcus pyogenes M1 GAS.

Assay [7] in a line: C. albicans growth with fluconazole, confirmation, fluorescence, retest (AID 2467). It is filed as functional, cell-based.
Another assay has as its system HEK293. Description: inhibitors of LMP1-driven NF-kB reporter, dose response, cell-based, HEK293, luciferase, cherry-pick (AID 588343). It is filed as functional. Particulars: Homo sapiens.
Assay [8] has as its target T2, Serine/threonine-protein phosphatase (Candida dubliniensis (strain CD36 / CBS 7987 / NCPF 3949 / NRRLY-17841) (Yeast), UniProt B9W6M3).
T2 sequence (B9W6M3 whole entry): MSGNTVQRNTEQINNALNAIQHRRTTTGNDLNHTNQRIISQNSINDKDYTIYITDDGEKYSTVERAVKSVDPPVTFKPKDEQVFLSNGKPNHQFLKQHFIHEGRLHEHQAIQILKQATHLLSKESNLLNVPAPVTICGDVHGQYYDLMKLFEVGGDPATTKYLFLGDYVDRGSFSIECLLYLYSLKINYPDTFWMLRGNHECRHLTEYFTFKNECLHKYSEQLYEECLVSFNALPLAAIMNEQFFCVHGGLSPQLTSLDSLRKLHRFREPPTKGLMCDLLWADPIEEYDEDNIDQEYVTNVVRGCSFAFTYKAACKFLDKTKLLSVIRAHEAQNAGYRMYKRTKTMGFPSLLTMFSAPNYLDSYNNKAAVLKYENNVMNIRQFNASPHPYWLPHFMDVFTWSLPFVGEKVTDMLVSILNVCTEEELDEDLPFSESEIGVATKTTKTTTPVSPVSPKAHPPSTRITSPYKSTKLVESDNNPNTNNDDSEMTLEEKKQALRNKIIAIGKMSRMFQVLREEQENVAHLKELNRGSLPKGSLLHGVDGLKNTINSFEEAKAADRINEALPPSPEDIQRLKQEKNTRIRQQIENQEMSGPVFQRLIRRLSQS
Put plainly: calcineurin pathway inhibitors in yeast reporter, dose response, S. cerevisiae, CDRE-lacZ, luminescence, secondary (AID 2388).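 Further: yeast reporter cells carrying a calcineurin-responsive lacZ construct stimulated with calcium chloride; luminescent beta-galactosidase reporter signal in whole cells rather than isolated phosphatase activity; potency for inhibition where a drop in reporter signal means calcineurin blockade.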 It is filed as functional, cell-based.

Assay [9] concerns the target ATP-dependent molecular chaperone HSP82 (Candida albicans (strain WO-1) (Yeast), UniProt C4YTQ8). Description: loss of DOC-induced GRE-beta-galactosidase reporter signal, dose response, Hsp90 inhibitor project, S. cerevisiae, luminescence (AID 2400).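 Further: beta-galactosidase luminescence from glucocorticoid response element reporter as proxy for Hsp90 function; inhibitor potency where signal loss means Hsp90 inhibition.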 It is filed as functional, cell-based.
For assay [10], the system named is Streptococcus sp. 'group A'. Put plainly: growth inhibition of control SK(-) GAS strain, dose response, counter-screen for streptokinase expression inhibitor project, luminescence, kanamycin, BacTiterGlo, confirmation (AID 1900). It is filed as functional, organism-based. A general note: A counterscreen serves to expose hits that act by an unwanted route or on another target.

In assay [11] the target is Heat shock protein HSP 90-alpha (Homo sapiens, UniProt P07900). It is filed as functional, organism-based.
The next assay concerns Streptococcus. Put plainly: Group A Streptococcus viability loss, dose response, counter-screen for streptokinase expression inhibitor project, luminescence, BacTiterGlo (AID 1915).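 Further: potency for reduction of bacterial viability or growth.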 It is filed as functional, organism-based.
A further assay has as its target T3, Caspase-3 (Homo sapiens, UniProt P42574).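 Further: Dose-response selectivity test against caspase-3 for candidate inhibitors of sentrin-specific proteases (SENPs).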
T3 sequence (P42574 whole entry): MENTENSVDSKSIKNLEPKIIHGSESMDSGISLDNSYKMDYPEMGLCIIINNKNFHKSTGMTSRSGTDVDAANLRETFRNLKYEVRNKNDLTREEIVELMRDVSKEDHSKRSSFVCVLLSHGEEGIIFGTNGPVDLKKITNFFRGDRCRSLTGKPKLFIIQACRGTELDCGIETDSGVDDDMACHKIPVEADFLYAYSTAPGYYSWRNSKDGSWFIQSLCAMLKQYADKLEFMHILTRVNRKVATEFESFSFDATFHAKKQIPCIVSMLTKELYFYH
It is filed as functional.

The target of assay [12] is T4, Sentrin-specific protease 6 (Homo sapiens, UniProt Q9GZR1).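 Further: Luminescence-based dose-response confirmatory assay of SENP6 inhibition, following up an ultra-high-throughput screen.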
T4 sequence (Q9GZR1 whole entry): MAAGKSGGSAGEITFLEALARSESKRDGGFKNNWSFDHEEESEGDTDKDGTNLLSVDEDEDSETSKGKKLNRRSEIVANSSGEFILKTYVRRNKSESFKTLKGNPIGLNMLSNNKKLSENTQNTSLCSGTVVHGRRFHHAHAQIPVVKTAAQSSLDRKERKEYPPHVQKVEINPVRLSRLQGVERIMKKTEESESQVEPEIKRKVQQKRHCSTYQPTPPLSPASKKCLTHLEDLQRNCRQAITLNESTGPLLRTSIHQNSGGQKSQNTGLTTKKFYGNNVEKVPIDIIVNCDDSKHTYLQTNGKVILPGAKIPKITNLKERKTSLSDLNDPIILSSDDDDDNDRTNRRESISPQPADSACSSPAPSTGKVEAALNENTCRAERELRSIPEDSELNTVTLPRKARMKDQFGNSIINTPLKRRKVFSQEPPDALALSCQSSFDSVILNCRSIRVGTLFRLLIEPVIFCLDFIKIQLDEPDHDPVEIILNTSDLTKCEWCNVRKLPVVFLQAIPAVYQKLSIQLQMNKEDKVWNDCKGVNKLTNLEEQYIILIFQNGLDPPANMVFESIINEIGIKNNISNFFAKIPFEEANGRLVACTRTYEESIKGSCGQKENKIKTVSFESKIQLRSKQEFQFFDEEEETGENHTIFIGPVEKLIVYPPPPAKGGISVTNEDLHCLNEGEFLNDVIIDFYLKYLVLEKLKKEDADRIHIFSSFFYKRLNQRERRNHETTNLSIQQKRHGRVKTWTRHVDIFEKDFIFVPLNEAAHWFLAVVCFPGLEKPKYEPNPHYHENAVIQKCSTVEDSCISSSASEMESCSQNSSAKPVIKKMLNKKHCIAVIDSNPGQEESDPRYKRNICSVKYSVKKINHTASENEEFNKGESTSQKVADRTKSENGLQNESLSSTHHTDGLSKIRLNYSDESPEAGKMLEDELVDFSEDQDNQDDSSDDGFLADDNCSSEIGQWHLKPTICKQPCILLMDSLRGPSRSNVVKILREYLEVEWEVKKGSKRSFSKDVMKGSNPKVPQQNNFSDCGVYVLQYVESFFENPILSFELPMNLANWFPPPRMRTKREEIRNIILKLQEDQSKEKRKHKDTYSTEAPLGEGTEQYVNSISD
It is filed as functional.

For assay [13], the target named is T5, Sentrin-specific protease 8 (Homo sapiens, UniProt Q96LD8).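 Further: luminescence read-out of SENP8 inhibition, dose-response confirmation following an ultra-high-throughput screen.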
T5 sequence (Q96LD8 whole entry): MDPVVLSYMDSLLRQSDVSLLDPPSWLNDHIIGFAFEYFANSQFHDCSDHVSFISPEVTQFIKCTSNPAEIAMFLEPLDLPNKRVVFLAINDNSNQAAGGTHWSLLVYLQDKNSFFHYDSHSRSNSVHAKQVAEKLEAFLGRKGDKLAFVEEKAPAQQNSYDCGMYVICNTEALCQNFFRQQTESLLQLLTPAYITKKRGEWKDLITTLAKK
It is filed as functional.

Assay [14] addresses T6, Sentrin-specific protease 7 (Homo sapiens, UniProt Q9BQF6).
T6 sequence (Q9BQF6 whole entry): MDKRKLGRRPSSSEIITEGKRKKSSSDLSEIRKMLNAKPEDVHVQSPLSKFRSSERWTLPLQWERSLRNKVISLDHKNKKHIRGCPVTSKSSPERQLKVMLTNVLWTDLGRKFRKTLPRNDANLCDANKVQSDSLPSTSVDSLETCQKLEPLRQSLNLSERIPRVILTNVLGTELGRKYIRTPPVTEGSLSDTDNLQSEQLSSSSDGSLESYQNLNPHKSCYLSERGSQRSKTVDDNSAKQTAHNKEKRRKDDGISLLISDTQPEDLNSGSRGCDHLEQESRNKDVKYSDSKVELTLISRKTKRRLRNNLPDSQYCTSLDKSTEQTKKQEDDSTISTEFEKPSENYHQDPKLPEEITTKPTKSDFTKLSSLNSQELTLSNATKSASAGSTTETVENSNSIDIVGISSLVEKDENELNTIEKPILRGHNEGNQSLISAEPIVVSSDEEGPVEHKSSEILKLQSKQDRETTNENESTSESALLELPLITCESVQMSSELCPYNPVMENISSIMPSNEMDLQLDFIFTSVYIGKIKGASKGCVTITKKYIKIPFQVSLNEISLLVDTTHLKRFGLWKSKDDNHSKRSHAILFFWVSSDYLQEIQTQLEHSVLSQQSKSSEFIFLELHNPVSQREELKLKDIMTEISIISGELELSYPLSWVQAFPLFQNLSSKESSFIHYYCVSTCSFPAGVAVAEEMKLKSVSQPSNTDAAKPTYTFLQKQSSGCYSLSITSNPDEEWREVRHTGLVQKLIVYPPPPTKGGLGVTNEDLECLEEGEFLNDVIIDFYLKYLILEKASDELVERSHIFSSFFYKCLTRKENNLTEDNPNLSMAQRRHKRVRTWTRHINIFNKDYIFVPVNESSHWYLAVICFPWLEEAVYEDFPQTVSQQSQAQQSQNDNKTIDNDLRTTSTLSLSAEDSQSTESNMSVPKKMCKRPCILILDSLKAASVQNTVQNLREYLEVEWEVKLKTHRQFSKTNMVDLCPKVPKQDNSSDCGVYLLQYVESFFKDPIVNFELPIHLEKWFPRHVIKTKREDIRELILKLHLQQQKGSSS
It is filed as functional.

Sequence of Nonstructural protein 1 (Q194T2 whole entry): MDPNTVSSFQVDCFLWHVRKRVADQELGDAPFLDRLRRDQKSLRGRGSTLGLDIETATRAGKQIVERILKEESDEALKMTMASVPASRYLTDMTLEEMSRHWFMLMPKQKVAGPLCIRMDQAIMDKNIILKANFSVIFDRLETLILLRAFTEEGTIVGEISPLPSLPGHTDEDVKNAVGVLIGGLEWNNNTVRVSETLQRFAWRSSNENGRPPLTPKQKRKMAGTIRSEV
Sequence of ATP-dependent molecular chaperone HSP82 (C4YTQ8 whole entry): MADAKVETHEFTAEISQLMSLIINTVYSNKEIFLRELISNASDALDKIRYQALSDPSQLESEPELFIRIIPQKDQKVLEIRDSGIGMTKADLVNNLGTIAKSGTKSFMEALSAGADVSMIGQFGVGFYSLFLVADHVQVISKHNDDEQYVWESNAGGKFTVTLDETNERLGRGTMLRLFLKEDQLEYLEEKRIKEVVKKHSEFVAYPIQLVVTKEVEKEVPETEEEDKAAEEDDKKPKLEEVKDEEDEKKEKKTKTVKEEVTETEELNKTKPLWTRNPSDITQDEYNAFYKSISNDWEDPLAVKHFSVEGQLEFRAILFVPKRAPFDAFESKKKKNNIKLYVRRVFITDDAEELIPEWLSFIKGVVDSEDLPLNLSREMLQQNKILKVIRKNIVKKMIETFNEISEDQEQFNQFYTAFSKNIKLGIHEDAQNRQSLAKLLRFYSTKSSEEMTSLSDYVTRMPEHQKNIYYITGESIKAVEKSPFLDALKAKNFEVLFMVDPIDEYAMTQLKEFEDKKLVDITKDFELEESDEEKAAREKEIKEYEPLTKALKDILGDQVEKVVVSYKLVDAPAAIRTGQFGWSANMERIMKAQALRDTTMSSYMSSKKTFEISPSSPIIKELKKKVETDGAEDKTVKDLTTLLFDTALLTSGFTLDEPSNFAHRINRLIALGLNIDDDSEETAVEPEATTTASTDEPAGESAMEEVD

Take `O=C(N/N=C/c1cc2c3c(c1O)CCCN3CCC2)c1ccccc1O`: the IC50 (in general, the point on the concentration scale where inhibition reaches its midpoint) at Nonstructural protein 1 is 3.22 µM (active). Further, the EC50 (usually the concentration at which the effect is half-maximal) in assay [1] is < 0.1 µM (active); in assay [2] it was 0.558 µM (active); in assay [3], 23.7 µM (active); in assay [4], 2.89 µM (active); in [5] it was 0.102 µM (active); in assay [6], 0.798 µM (active). Also, the concentration giving a half-maximal response (EC50) in the assay “cells” is 0.687 µM (active); in the assay with BJ it was 22.4 µM (active); at Streptokinase A it was > 150 µM (not active); in assay [7], 0.429 µM (active); in assay [8], 18.2 µM (active); in assay [9], 18.1 µM (active). Further, the EC50 in assay [10] is 8.16 µM (active); in the assay with Streptococcus it was 12 µM (active). The AC50 (commonly the concentration at which the activity in the assay is half-maximal) in the assay with HEK293 was 5.6 µM (active); in [11], 2.14 µM (active).

With `CCOC(=O)/C(=N\Nc1ncnc2ccccc12)c1ccc(OC)cc1`, the IC50 on Caspase-3 is 16.9 µM (active); in assay [12], 5.23 µM (active); in [13] it was 14.2 µM (active); in [14], 3.39 µM (active).

As for `CC1CCCN(C(=O)c2ccc(-c3ccccc3Cl)o2)C1` (stereo unspecified), the IC50 on Caspase-3 was 34.7 µM (active); in assay [12], 27.6 µM (active); in [13], 31.4 µM (active); in [14] it was 15.2 µM (active).

Consider `COn1c(-c2ccccc2)nc2ccc(Cl)cc21`, for which the IC50 on Caspase-3 was 20.1 µM (active); in assay [12], 30 µM (active); in assay [13] it was 34.9 µM (active); in assay [14], 13.1 µM (active).

`COc1ccc(-c2csc3ncnc(NCCO)c23)cc1`: the AC50 in the assay with HEK293 is 13.9 µM (active).

In the case of `CC(C)CC(=NNC(=O)c1ccncc1)c1cc(Cl)ccc1O`, the AC50 in the assay with HEK293 is 4.28 µM (active).
